The numbers were not newly measured in patent US20200261422A1, “METHODS FOR […] […] HUMAN PATIENTS USING I[…]-2 […]” (Massachusetts Institute of Technology, priority 2019, published 2020), which cites them from elsewhere.

For data set [1] the following is noted: in vivo.
Data set [2] relates to effects of dexmedetomidine (α2 adrenergic receptor agonist). Particulars: intramuscular injection; dexmedetomidine e.g. DEXDOMITOR and DEXDOMITOR 0.1.

Regarding `Cc1cccc([C@H](C)c2cnc[nH]2)c1C` [dexmedetomidine, Dexmedetomidine], in data set [1], the terminal elimination half-life entry is reported as “about 2 hours”.
`CCC1(c2cnc[nH]2)Cc2ccccc2C1` [atipamezole, 4-(2-ethyl-2,3-dihydro-1H-inden-2-yl)-1H-imidazole]: in data set [2], the “time to reverse the effects of dexmedetomidine” value is 5 to 10 min.
